From patent publication US20200268720A1, “METHODS OF USE OF A CLASS IIA HDAC INHIBITOR” (GlaxoSmithKline LLC, priority 2016, published 2020)
Entries after “also recorded” stand apart in the source; their conditions may differ.

What was measured:
[1] = tested on: CD11b+ bone marrow derived CFSE-labeled monocytes; assay: Monocyte tracking experiment; assay type: in vivo, mouse; conditions: TMP195 treatment of recipient mice vs DMSO
Procedure: Monocyte tracking was adapted and modified from Qian et al.^35 Bone marrow cells were isolated from approximately 80 day old wild-type FVB/N virgin females. CD11b+ cells were isolated with CD11b MicroBeads (Miltenyi Biotec 130-049-601) using LS magnetic separation columns (Miltenyi Biotec 130-042-401) per manufacturer's instruction. CD11b^+ cells were incubated with 10 μM of CFSE (ThermoFisher C34554) for 15 minutes at 37° C. […] Mice were treated for an additional 5 days and tumors were harvested. The percent of CD11b^+ CFSE^+ double positive cells was assessed by flow cytometry.

[2] = tested on: MMTV-PyMT tumors; assay: Tumor cell proliferation and apoptosis (Ki67, cleaved Caspase 3 IHC, immunoblot); assay type: in vivo, mouse; conditions: 5 days of TMP195
Procedure: Tumors were manually dissociated using a blade before being lysed in complete RIPA lysis buffer for 2 hours at 4° C. Complete RIPA is a combination of RIPA lysis buffer, a protease inhibitor, and Phenylmethylsulfonyl fluoride (PMSF). After incubation in RIPA, the lysates were centrifuged at 10,000 rcf for 10 minutes and the supernatant was collected for analysis. Protein concentration was measured using a Bicinchoninic acid (BCA) assay as per manufacturer's instructions. Equal protein concentrations were mixed into NuPAGE LDS sample buffer, beta mercaptoethanol (BME), and complete RIPA buffer before being heated for 10 mins at 90° C. to denature the protein. The gels were run on 15 wells 4-12% Bis-Tris Protein gels for 2 hours at 110 volts before being transferred onto a PVDF membrane. The blots were blocked in a 5% milk and PBST solution, and placed in primary antibody overnight. Blots were then incubated in secondary antibody for 1 hour before being developed with supersignal west PICO chemiluminescence substrate and FEMTO supersignal maximal sensitivity substrate. A Luminescent Image Analyzer LAS-4000 was used to develop blots. Primary antibodies purchased from Cell Signaling Technology were used: cleaved caspase 3 (D175), PARP (9542S) and Actin. Antibodies were diluted to a 1:1000 solution in 1% BSA, and sodium azide diluted to 1:500. […]

[3] = tested on: human breast cancer cell lines (BT20, MCF7, HCC202, T47D, MDA-MB-453 and MDA-MB-436); assay: In vitro cell death assay (CellTiter-Glo), human lines; assay type: cell-based; conditions: 0, 0.1, 1, 10 μM, 48 hours
Procedure: The human breast cancer cell lines (BT20, MCF7, HCC202, T47D, MDA-MB-453 and MDA-MB-436) were obtained from ATCC. Prior to use, cell line authentication was performed by either STR profiling at Dana-Farber Cancer Institute or by Fluidigm based fingerprinting with a panel of SNPs at The Broad Institute. Cell lines were tested for mycoplasma with the MycoAlert PLUS Mycoplasma Detection Kit (Lonza LT07) according to manufacturer's instructions. Mouse breast tumor cell lines were established from 4 different MMTV-PyMT tumor bear mice. Mouse breast tumor cell line 7333 was implanted into wild-type littermates and once the tumor formed it was removed and used to generate the tumor cell line “MMTV”. All cells were plated at 1E4 cells/well in a 96 well plate. Cells were treated for 48 hours and CellTiter-Glo was used to assess cell viability.

[4] = tested on: MMTV-PyMT tumors; assay: Single agent efficacy on tumor burden in autochthonous MMTV-PyMT mice; assay type: in vivo, mouse
[5] = tested on: metastatic lesions in the lung; assay: Pulmonary metastasis analysis; assay type: in vivo, mouse
Procedure: Lungs were removed from animals as described above. […] The number of metastatic foci are determined on sections taken every […] throughout the whole lung^3,33 and quantitation was performed blinded by an animal pathologist.

[6] = tested on: MMTV-PyMT tumors; assay: Depletion experiments (anti-CD11b, anti-CSF1, anti-CD8, anti-CD4, anti-IFNγ); assay type: in vivo, mouse
Procedure: For CSF1 depletion, mice were injected IP with 1 mg of anti-CSF1 (BioXCell BE0204; clone 5A1) 1 day before treatment with vehicle or compound, and then with 0.5 mg every 5 days^3. For CD11b depletion mice were injected IP with 100 μg of anti-CD11b (clone M1/70; BioLegend 101231) one day before treatment with vehicle or compound, and then every other day.^34 For CD8 immune cell depletion, mice were injected IP with 1 mg anti-CD8 immunoglobulin (BioXCell BE0117; clone YTS169.4) or control IgG2b (BioXCell BE0090; clone LTF-2) on day 1 and then with 0.5 mg every 5 days for 2 week study. For 6-day experiment mice were dosed with: IgG1 (BioXcell BE0088; clone HRPN), α-CD8 (BioXcell BE0117; clone YTS169.4), α-CD4 (BioXcell BE0033-1; clone GK1.5) and α-INFγ (BioXcell BE0055; clone XMG1.2) with 1 mg on day 0 and 0.5 mg on day 4; except α-CD4 which was dosed at 400 μg on day 0 and 400 μg on day 4.

[7] = tested on: MMTV-PyMT tumors
Procedure: For all transgenic mouse experiments virgin female FVB/N transgenic mice carrying the polyoma middle T (PyMT) transgene under the control of the mammary tumor virus (MMTV) promoter were used. All mice were maintained within the Dana-Farber Cancer Center (DCFI) animal facility and all experiments involving animals were conducted in accordance with the GSK Policy on the Care, Welfare and Treatment of Laboratory Animals and were reviewed and approved by the DFCI Institutional Animal Care and Use Committee approved. MMTV-PyMT transgenic mice were obtained from The Jackson Laboratory (002374). Mice that were approximately 80 days old were enrolled into the study when their tumor burden was between 300-600 mm^3, unless otherwise noted. Although female mice have 10 mammary fat pads, tumors from mammary fat pad positions 5 and 10 were excluded from all experiments and analysis. Caliper measurements were used to calculate the tumor volume from each mammary tumor using [(Length×Width^2)/2]. The sum of the volume from each tumor on a mouse was combined to generate “total tumor burden”. At the indicated time points animals were euthanized in a CO2 chamber before performing a cardiac perfusion with normal saline. Lungs and tumors were then removed for analysis.
Tumors were extracted and fixed in 10% formalin overnight. Tumors were embedded in paraffin and sectioned at the Rodent Pathology Core at Harvard Medical School. Preceding immunohistochemical staining, tumor sections were exposed to two washes with Histo-Clear II (National Diagnostics, cat. #HS-202), two washes with 100% ethanol, and subsequent hydration with washes of 90%, 80%, 70%, and 50% ethanol. Antigen unmasking was achieved by heating sections in 10 mM sodium citrate buffer (pH 6.0). After cooling, sections were washed in dH20, incubated in 3% Hydrogen peroxide for 10 minutes at room temperature, washed in dH20 again, and then washed in 1×PBS. Antigen blocking was carried out by incubating sections in PBS buffer containing 0.5% Tween, 1% BSA plus 5% serum for 1 hour at room temperature. Sections were then stained in block buffer containing primary antibody (anti-mouse F4/80, clone BM8, BioLegend cat. #123101, 1:50; anti-mouse CD11b, clone EPR1344, ABCAM® cat. #ab133357, 1:50; anti-mouse cleaved caspase-3 (Asp175), Cell Signaling Technology cat. #9661S, 1:300; anti-mouse CD34, clone MEC14.7, BioLegend cat. #119301, 1:100; anti-mouse Ki-67, clone D3B5, BioLegend cat. #12202S, 1:400; CD40 Abcam (ab13545) 1:200); 1:200 Mac-2 (BioLegend cat. #125403, clone M3/38) overnight in a wet chamber at 4° C. in the dark. The following day, sections were washed three times in 1×PBS and stained with secondary biotinylated antibody in PBS block buffer for 1 hour at room temperature. Sections were washed three times with 1×PBS and Elite Vectastain ABC Kit (Vector Laboratories, PK-6100) was applied for 30 minutes per manufacturer's instructions at room temperature in the dark. Sections were washed with 1×PBS, developed with DAB reagent (Peroxidase Substrate Kit, Vector Laboratories, cat. #5K4100), and counterstained with hematoxylin. Sections were then exposed to two washes with dH20, one wash with 1×PBS, and subsequent washes of increasing ethanol concentration for dehydration followed by incubation in Histo-Clear II. Slides were mounted with VectaMount Permanent Mounting Medium (Vector Laboratories, H-5000) and No. 1 glass coverslips (Denville Scientific, cat. #M1100-02) and allowed to cure for 24 hours. Sections were viewed with an Olympus BX43 Trinocular Microscope. For all IHC quantitation ten randomly selected fields from at least 4 different tumors in each treatment group were used to quantitate the percent of tissue positive for each marker using ImageJ software^32. Images were converted to a greyscale red-green-blue (RGB) stack. Positive stain in the “blue” greyscale image was quantified at the appropriate threshold as % total image area positive for stain.

[8] = tested on: human monocytes, T or B cells; conditions: cited from earlier work
[9] = 50 mg/kg TMP195 IP daily, 5 days vs DMSO

Question: What does the source list for CC(C)(CNC(=O)c1cccc(-c2noc(C(F)(F)F)n2)c1)c1coc(-c2ccccc2)n1 [TMP195, N-(2-methyl-2-(2-phenyloxazol-4-yl)propyl)-3-(5-(trifluoromethyl)-1,2,4-oxadiazol-3-yl)benzamide]?
Answer: proportion of IV injected CD11bhiCFSE+ monocytes recruited to tumors [1]: significant increase; also recorded: significantly enhanced; cell death in the tumor (cleaved Caspase 3, PARP cleavage) [2]: increase in cell death; proliferating tumor cells (Ki67) [2]: significant decrease; cell viability, 6 human breast cancer cell lines [3]: not directly cytotoxic; also recorded: does not affect cell viability; rate of tumor growth ([4]; total tumor burden 150-800 mm^3 at start, 13 days, 50 mg/kg TMP195 IP daily vs DMSO): significantly reduced; tumor burden, single agent ([4]; total tumor burden 200-600 mm^3 at start, 50 mg/kg TMP195 IP daily vs vehicle): significant reduction; metastatic lesions in the lung ([5]; initial tumor burden <400 mm^3, 24 days of treatment): significant decrease; metastatic pulmonary lesions ([5]; tumor burden 200-600 mm^3 at start, 14 days of treatment): decrease; anti-tumor efficacy with myeloid cell depletion (anti-CD11b) ([6]; TMP195 50 mg/kg IP daily plus anti-CD11b): abrogated the efficacy; anti-tumor efficacy with macrophage depletion (anti-CSF-1) ([6]; TMP195 50 mg/kg IP daily plus anti-CSF-1): abrogated the efficacy; CD34 staining in tumor sections with IFNγ neutralization ([6]; TMP195 plus anti-IFNγ antibody): failed to normalize CD34 staining; autochthonous tumor burden with CD4+ cell depletion ([6]; TMP195 plus α-CD4, 6 days): reduced; single agent efficacy with CD8+ cell depletion ([6]; TMP195 plus α-CD8): prevented the single agent efficacy; Granzyme B+ CD8+ T cells in tumors with IFNγ neutralization ([6]; TMP195 plus α-IFNγ): disappearance; reduction of tumor burden with IFNγ neutralization ([6]; TMP195 plus α-IFNγ, 6 days): loss of efficacy; proportion of myeloid (CD11b+) and mature macrophages (Mac-2+, CD115+, F480+) in tumors [7, 9]: increased proportion; proportion of other tumor infiltrating immune cells examined [7, 9]: without affecting; MHCII+CD11bhi (MTM) cell population in tumors ([7]; 5 days of TMP195 treatment): increase; proportion of pro-tumor TAMs (MHCII+CD11blo) ([7]; 5 days of TMP195 treatment): decrease; also recorded: significant reduction; cytotoxic T lymphocytes in tumors (Granzyme B+ of CD45+CD3+CD8+ cells) ([7]; 5 days of TMP195 vs vehicle): significantly increases; also recorded: increase; proportion of CD8+ T cells in the tumor ([7]; TMP195 treatment): does not change; gene expression of monocytes and lymphocytes ([8]; previous report): altered monocyte gene expression without affecting that of lymphocytes; direct cytotoxicity to human monocytes, T or B cells ([8]; previously reported): not directly cytotoxic
